Experimental data as given in ChEMBL document CHEMBL1136061, “Novel potent antagonists of human neuropeptide Y Y5 receptors. Part 2: substituted benzo[a]cycloheptene derivatives” (Bioorg Med Chem Lett, 2002).

Legend:
[1] = molecular target: T1, Neuropeptide Y receptor type 5 (Homo sapiens, UniProt Q15761); test: (§1) Concentration that inhibited 50% of total specific binding of [125I]PYY ligand to human NPY-Y5 receptor
T1 sequence (Q15761 whole entry): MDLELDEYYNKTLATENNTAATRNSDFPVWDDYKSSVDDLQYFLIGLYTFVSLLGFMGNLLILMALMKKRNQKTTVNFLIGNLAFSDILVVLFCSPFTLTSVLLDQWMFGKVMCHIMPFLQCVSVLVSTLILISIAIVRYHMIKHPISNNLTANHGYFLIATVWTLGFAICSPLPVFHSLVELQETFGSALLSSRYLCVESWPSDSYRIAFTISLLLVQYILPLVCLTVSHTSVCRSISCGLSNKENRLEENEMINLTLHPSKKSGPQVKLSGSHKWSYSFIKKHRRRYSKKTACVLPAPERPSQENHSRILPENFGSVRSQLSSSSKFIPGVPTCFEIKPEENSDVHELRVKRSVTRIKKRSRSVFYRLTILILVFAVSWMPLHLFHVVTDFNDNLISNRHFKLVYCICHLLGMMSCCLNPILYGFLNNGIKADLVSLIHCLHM

[2] = molecular target: T2, Neuropeptide Y receptor type 1 (Homo sapiens, UniProt P25929); test: Concentration that inhibited 50% of total specific binding of [125I]PYY ligand to human NPY-Y1 receptor
T2 sequence (P25929 whole entry): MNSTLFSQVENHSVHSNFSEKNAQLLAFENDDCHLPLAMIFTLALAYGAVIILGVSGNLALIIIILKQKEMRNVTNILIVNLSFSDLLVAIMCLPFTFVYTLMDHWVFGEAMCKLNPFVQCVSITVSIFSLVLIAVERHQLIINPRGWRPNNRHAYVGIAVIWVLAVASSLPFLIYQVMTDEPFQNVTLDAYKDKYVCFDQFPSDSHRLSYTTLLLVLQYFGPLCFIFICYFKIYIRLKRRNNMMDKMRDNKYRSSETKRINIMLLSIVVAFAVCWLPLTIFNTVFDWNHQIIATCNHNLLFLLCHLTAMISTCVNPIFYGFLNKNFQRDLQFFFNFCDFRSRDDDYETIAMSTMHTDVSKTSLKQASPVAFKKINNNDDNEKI

[3] = molecular target: T3, Neuropeptide Y receptor type 5 (Homo sapiens) (UniProt Q15761); test: as §1
T3 sequence (whole entry): T1 sequence (Q15761 whole entry)

Structure (SMILES): COc1ccc2c(c1)CCCC(NCCN1CCC(CNS(=O)(=O)c3cccc4ccccc34)CC1)C2 (stereo not drawn)
- IC50 [1]: 1000 nM

Structure (SMILES): COc1ccc2c(c1)CC(CNCCN1CCC(CNS(=O)(=O)c3cccc4ccccc34)CC1)CCC2 (stereo not drawn)
- IC50 [1]: 540 nM
- IC50 [2]: 2800 nM

Structure (SMILES): CCOC(=O)COc1ccc2c(c1)CC(NCC1CCN(CCNS(=O)(=O)c3cccc4ccccc34)CC1)CCC2 (stereo not drawn)
- IC50 [1]: 680 nM

Structure (SMILES): COc1ccc2c(c1OC)CC(NCC1CN(CCNS(=O)(=O)c3cccc4ccccc34)C1)CCC2 (stereo not drawn)
- IC50 [1]: 140 nM

Structure (SMILES): O=S(=O)(NCCN1CCC(CNC2CCCc3ccc(Cl)cc3C2)CC1)c1cccc2ccccc12 (stereo not drawn)
- IC50 [1]: 85 nM
- IC50 [2]: 8500 nM

Structure (SMILES): COc1ccc2c(c1)CC(NCC1CCN(CCNS(=O)(=O)c3cccc4ccccc34)CC1)CCC2 (stereo not drawn)
- IC50 [1]: 45 nM
- IC50 [2]: 14000 nM

Structure (SMILES): COc1ccc2c(c1)CC(CNC1CCN(CCNS(=O)(=O)c3cccc4ccccc34)CC1)CCC2 (stereo not drawn)
- IC50 [1]: 39 nM
- IC50 [2]: 29000 nM

Structure (SMILES): O=S(=O)(NCCN1CC(CNC2CCCc3ccc(Cl)cc3C2)C1)c1cccc2ccccc12 (stereo not drawn)
- IC50 [1]: 310 nM

Structure (SMILES): COc1ccc2c(c1)CC(CNCC1CCN(CCNS(=O)(=O)c3cccc4ccccc34)CC1)CCC2 (stereo not drawn)
- IC50 [1]: 16 nM
- IC50 [2]: 9600 nM

Structure (SMILES): COc1ccc2c(c1)CC(NCCN1CCC(CNS(=O)(=O)c3cccc4ccccc34)CC1)CCC2 (stereo not drawn)
- IC50 [1]: 740 nM
- IC50 [2]: 19000 nM

Structure (SMILES): Cc1ccc2c(c1)CC(NCC1CCN(CCNS(=O)(=O)c3cccc4ccccc34)CC1)CCC2 (stereo not drawn)
- IC50 [1]: 72 nM
- IC50 [2]: 18000 nM

Structure (SMILES): O=S(=O)(NC[C@H]1CC[C@@H](CNCC2CCc3ccccc3C2)CC1)c1cccc2ccccc12 (stereo partly drawn)
- IC50 [1]: 38 nM
- IC50 [2]: 1300 nM

Structure (SMILES): COc1ccc2c(c1)CC(NC1CCN(CCNS(=O)(=O)c3cccc4ccccc34)CC1)CCC2 (stereo not drawn)
- IC50 [1]: 66 nM
- IC50 [2]: 35000 nM

Structure (SMILES): O=S(=O)(NCCN1CCC(CNC2CCCc3ccccc3C2)CC1)c1cccc2ccccc12 (stereo not drawn)
- IC50 [1]: 210 nM

Structure (SMILES): Cc1ccc2c(c1)CC(NCC1CN(CCNS(=O)(=O)c3cccc4ccccc34)C1)CCC2 (stereo not drawn)
- IC50 [1]: 190 nM

Structure (SMILES): O=[N+]([O-])c1ccc2c(c1)CC(NCC1CCN(CCNS(=O)(=O)c3cccc4ccccc34)CC1)CCC2 (stereo not drawn)
- IC50 [1]: 79 nM
- IC50 [2]: 15000 nM

Structure (SMILES): O=C(O)COc1ccc2c(c1)CC(NCC1CCN(CCNS(=O)(=O)c3cccc4ccccc34)CC1)CCC2 (stereo not drawn)
- inhibition [3]: 25.7%

Structure (SMILES): Nc1ccc2c(c1)CC(NCC1CCN(CCNS(=O)(=O)c3cccc4ccccc34)CC1)CCC2 (stereo not drawn)
- IC50 [1]: 52 nM

Structure (SMILES): COc1cccc2c1CCCC(NCCN1CCC(CNS(=O)(=O)c3cccc4ccccc34)CC1)C2 (stereo not drawn)
- IC50 [1]: > 1000 nM

Structure (SMILES): COc1cc2c(cc1OC)CC(NCC1CCN(CCNS(=O)(=O)c3cccc4ccccc34)CC1)CCC2 (stereo not drawn)
- IC50 [1]: 68 nM
- IC50 [2]: 17000 nM

Structure (SMILES): COc1ccc2c(c1)CC(CNCC1CN(CCNS(=O)(=O)c3cccc4ccccc34)C1)CCC2 (stereo not drawn)
- IC50 [1]: 86 nM
- IC50 [2]: 22000 nM
